How the values were obtained:
[1] = tested on: taxol-induced peripheral neuropathy model (mechanical allodynia); test: von Frey test of mechanical allodynia in taxol-induced peripheral neuropathy rat model; type: in vivo, rat (Sprague-Dawley)
Procedure: (§1) Male rats (Sprague-Dawley, 160 to 180 g, Harlan Laboratories, Israel) were purchased and subjected to acclimatization for more than 1 week at an animal laboratory. The experimental animals were maintained at a light-and-darkness cycle of 12 hours, a temperature of 20 to 24° C., a relative humidity of 40 to 60%, and free access to water and food.
(§2) The degree of pain was assessed by withdrawal (avoidance response) using von Frey filaments. Mechanical stimuli were applied to the right hind paw by the use of an up-down method, and the lowest bending force showing avoidance response was defined as the paw withdrawal threshold (J Neurosci Methods, 1994; 53 (1): 55-63). First, the rats were placed in an acrylic box (13×25×13 cm^3) located on a wire mesh installed at a height of about 35 cm from the floor and stabilized for more than 20 minutes. Among von Frey filaments with various bending forces (0.008, 0.02, 0.04, 0.07, 0.16, 0.4, 0.6, 1.0, 1.4, 2.0, 4.0, 6.0, 8.0, 10.0, 15.0, 26.0, 60.0, 100, 180 and 300 g), the stimulus was started with 2.0 g of filament. The stimulus was applied to the extent of slightly bending in the direction perpendicular to the plantar surface, and the rats were stimulated with a filament with lower or higher bending force, depending on with and without reaction.
To induce peripheral neuropathy, 2 mg/kg of taxol—which is an anticancer agent commonly used for the treatment of solid cancers—was intraperitoneally (IP) administered at a dose of 0.5 ml/kg on days 1, 3, 5, 7 and 9. To confirm the induction of allodynia, von Frey test was used, and in the study only animals having […] or less of average pain threshold of hind paws were included.
On day 13 of the experiment, only animals—in which allodynia was verified by von Frey test—were selected as experimental groups, Test Compounds (10 mg/kg and 30 mg/kg) and vehicle as the negative control were orally administered 2 hours before the pain test on day 13 and day 14. Morphine (5 mg/kg) as the positive control was administered 30 minutes prior to the pain test by intraperitoneal administration on day 13 and day 14 of the experiment. After the experiment, all animals were euthanized with CO2.
(§3) Each experimental group was compared with the negative control group by using one-way ANOVA and Tukey […] post-test (Prism® GraphPad).

[2] = tested on: streptozotocin (STZ)-induced diabetic peripheral neuropathic pain rat model (mechanical allodynia); test: von Frey test of mechanical allodynia in streptozotocin (STZ)-induced diabetic peripheral neuropathic pain rat model; type: in vivo, rat (Sprague-Dawley); details: for bending force before administration: day 24, immediately before that day's dose
Procedure: as §1
as §2, with “reaction,” for “reaction.”
This experiment was conducted to investigate the analgesic effects of compound treatment at two different doses (10 mg/kg and 30 mg/kg) in a diabetic peripheral neuropathic pain model of rats induced by streptozotocin (STZ).
Diabetes was induced by 0.5 ml injection of streptozotocin (60 mg/kg) dissolved in citrate buffer (pH=6) into the tail vein of the rat. Animals were placed under a red lamp before injection and locked in a restraint device for administration.
In a streptozotocin (STZ)-induced diabetic peripheral neuropathic pain rat model, diabetic peripheral neuropathy was induced between 14 and 24 days after injection of STZ through the tail blood vessel of the rat. Blood glucose levels (BGL) of all animals on day 3 of the test were used to determine whether diabetes was induced, and on day 14, animals showing signs of mechanical allodynia by von Frey test were tested for BGL on day 14 and 23 of the experiment (FIG. 1).
After the experiment, all animals were euthanized with CO2.
as §3

NC(=O)O[C@@H](Cn1ncnn1)c1ccccc1Cl [Test Compound]
inhibitory effect on the induction of allodynia compared to the vehicle-administration group ([1]; day 13, 10 mg/kg orally, 2 hours before the pain test): a tendency to inhibit the induction of allodynia
inhibitory effect on the induction of allodynia compared to the vehicle-administration group ([1]; day 13, 30 mg/kg orally, 2 hours before the pain test): a significant inhibitory effect on the induction of allodynia
inhibitory effect on the induction of allodynia compared to the vehicle-administration group ([1]; day 14, 10 mg/kg orally, 2 hours before the pain test): a tendency to inhibit the induction of allodynia
inhibitory effect on the induction of allodynia compared to the vehicle-administration group ([1]; day 14, 30 mg/kg orally, 2 hours before the pain test): a significant inhibitory effect on the induction of allodynia
pain reduction compared to the negative control ([2]; 10 mg/kg, efficacy similar to 150 mg/kg of gabapentin): ~75%
allodynia suppressive effect compared to vehicle ([2]; day 14, 10 mg/kg PO): a tendency of allodynia suppressive effect
inhibition of allodynia, pre-treatment vs. post-treatment ([2]; day 14, 10 mg/kg PO): the induction of allodynia was significantly inhibited
allodynia suppressive effect compared to vehicle ([2]; day 14, 30 mg/kg PO): a tendency of allodynia suppressive effect
inhibition of allodynia, pre-treatment vs. post-treatment ([2]; day 14, 30 mg/kg PO): the induction of allodynia was significantly inhibited
mean bending force (paw withdrawal threshold, von Frey) ([2]; day 14, 2 hours after administration, 10 mg/kg PO, vehicle 34.50±6.61 g): 46.09 ± 4.48 g
allodynia suppressive effect compared to vehicle ([2]; day 24, 10 mg/kg PO): significant allodynia suppressive effect
inhibition of allodynia, pre-treatment vs. post-treatment ([2]; day 24, 10 mg/kg PO): the induction of allodynia was significantly inhibited
allodynia suppressive effect compared to vehicle ([2]; day 24, 30 mg/kg PO): significant allodynia suppressive effect
inhibition of allodynia, pre-treatment vs. post-treatment ([2]; day 24, 30 mg/kg PO): the induction of allodynia was significantly inhibited
mean bending force (paw withdrawal threshold, von Frey) ([2]; day 24, after administration, daily dosing from day 14, 10 mg/kg PO, vehicle 22.85±3.86 g): 44.36 ± 3.63 g
bending force before administration ([2]; after daily dosing from day 14, 10 mg/kg PO): 25.18 ± 2.96 g
bending force before administration ([2]; after daily dosing from day 14, 30 mg/kg PO): 23.55 ± 2.52 g

NCC1(CC(=O)O)CCCCC1 [gabapentin, reference compound]
allodynia suppressive effect compared to vehicle ([2]; day 14, 150 mg/kg IP): no significant allodynia suppressive effect
inhibition of allodynia, pre-treatment vs. post-treatment ([2]; day 14, 150 mg/kg IP): the induction of allodynia was significantly inhibited
mean bending force (paw withdrawal threshold, von Frey) ([2]; day 14, 2 hours after administration, 150 mg/kg IP, vehicle 34.50±6.61 g): 51.85 ± 4.91 g
allodynia suppressive effect compared to vehicle ([2]; day 24, 150 mg/kg IP): significant allodynia suppressive effect
inhibition of allodynia, pre-treatment vs. post-treatment ([2]; day 24, 150 mg/kg IP): the induction of allodynia was significantly inhibited
mean bending force (paw withdrawal threshold, von Frey) ([2]; day 24, after administration, daily dosing from day 14, 150 mg/kg IP, vehicle 22.85±3.86 g): 45.30 ± 4.63 g
bending force before administration ([2]; after daily dosing from day 14, 150 mg/kg IP): 25.50 ± 3.95 g

CN1CC[C@]23c4c5ccc(O)c4O[C@H]2[C@@H](O)C=C[C@H]3[C@H]1C5 [morphine, Morphine, reference compound]
inhibitory effect on the induction of allodynia compared to the vehicle-administration group ([1]; day 13, 5 mg/kg IP, 30 minutes prior to the pain test): a significant inhibitory effect on the induction of allodynia
inhibitory effect on the induction of allodynia compared to the vehicle-administration group ([1]; day 14, 5 mg/kg IP, 30 minutes prior to the pain test): a significant inhibitory effect on the induction of allodynia
